Experimental data taken from patent US20150038438A1, “ANTIBACTERIAL COMPOUNDS AND METHODS FOR USE” (PTC THERAPEUTICS, INC., priority 2011, published 2015).
Converted amounts (≈) assume the structure as drawn.

Columns and labels:
Assay in all cases: Antibacterial activity, microbroth dilution method (MIC)
[1] = tested on: Gram-positive Staphylococcus aureus (S. aureus) 29213; type: cell-based; details: Staphylococcus aureus, Gram-positive S. aureus 29213
How it was run: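 Read-out: visual absence of growth. The lowest concentration meeting this gives the MIC, expressed in μg/mL, with microbroth dilution as the method.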

[2] = tested on: super sensitive Gram-negative Escherichia coli (E. coli) BAS849; type: cell-based; details: Escherichia coli; super sensitive Gram-negative E. coli BAS849; microbroth dilution; read-out: MIC, E. coli BAS849
How it was run: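 In a microbroth dilution test, the minimum inhibitory concentration was defined as the lowest compound level preventing growth seen by eye, and was given in μg/mL.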

[3] = tested on: control Gram-negative E. coli 25922 strain; type: cell-based, Escherichia coli; details: Escherichia coli
How it was run: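 MIC (μg/mL) is taken as the lowest concentration with no macroscopically visible growth. Strains tested by microbroth dilution: Gram-positive S. aureus 29213, control Gram-negative E. coli 25922, and super-sensitive E. coli BAS849.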

Compound | MIC [1] | MIC [2] | MIC [3]
Cl.Cn1c(CNC(C)(C)C)cc2cc3c(cc21)NCCc1c-3[nH]c(=O)c(C(=O)O)c1O [Cpd 102, 10-((tert-butylamino)methyl)-4-hydroxy-9-methyl-2-oxo-1,2,5,6,7,9-hexahydropyrido[2′,3′:4,5]azepino[3,2-f]indole-3-carboxylic acid hydrochloride] | 12.5 to 150 µg/mL | 1 to 3.5 µg/mL | 3.5 to 12.5 µg/mL
CC1CCc2c([nH]c(=O)c(C(=O)O)c2O)-c2cc3cc(CNC(C)(C)C)n(C)c3cc21.Cl (stereo not drawn) [Cpd 65, 10-((tert-butylamino)methyl)-4-hydroxy-7,9-dimethyl-2-oxo-1,2,5,6,7,9-hexahydropyrido[3′,2′:6,7]cyclohepta[1,2-f]indole-3-carboxylic acid hydrochloride] | 3.5 to 12.5 µg/mL | 1 to 3.5 µg/mL | 3.5 to 12.5 µg/mL
CC(C)NCc1cc2cc3c(cc2n1C)CCCc1c-3[nH]c(=O)c(C(=O)O)c1O.Cl [Cpd 26, 4-hydroxy-10-((isopropylamino)methyl)-9-methyl-2-oxo-1,2,5,6,7,9-hexahydropyrido[3′,2′:6,7]cyclohepta[1,2-f]indole-3-carboxylic acid hydrochloride] | 3.5 to 12.5 µg/mL | < 1 µg/mL | < 1 µg/mL
Cl.Cn1c(CN2CCC2)cc2cc3c(cc21)CCCc1c-3[nH]c(=O)c(C(=O)O)c1O [Cpd 24, 10-(azetidin-1-ylmethyl)-4-hydroxy-9-methyl-2-oxo-1,2,5,6,7,9-hexahydropyrido[3′,2′:6,7]cyclohepta[1,2-f]indole-3-carboxylic acid hydrochloride] | 3.5 to 12.5 µg/mL | < 1 µg/mL | < 1 µg/mL
O=C(O)c1c(O)c2c([nH]c1=O)-c1ccc(N3CCCC3)cc1OCC2 [Cpd 77, 4-hydroxy-2-oxo-9-(pyrrolidin-1-yl)-1,2,5,6-tetrahydrobenzo[2,3]oxepino[4,5-b]pyridine-3-carboxylic acid] | 3.5 to 12.5 µg/mL (≈ 10.2 to 36.5 µM) | < 1 µg/mL | 12.5 to 150 µg/mL (≈ 36.5 to 438 µM)
CCNCc1cc2cc3c(cc2n1C)NCCc1c-3[nH]c(=O)c(C(=O)O)c1O.Cl [Cpd 100, 10-((ethylamino)methyl)-4-hydroxy-9-methyl-2-oxo-1,2,5,6,7,9-hexahydropyrido[2′,3′:4,5]azepino[3,2-f]indole-3-carboxylic acid hydrochloride] | 12.5 to 150 µg/mL | 1 to 3.5 µg/mL | 12.5 to 150 µg/mL
CN1CCC[C@@H]2CN(c3ccc4c(c3)CCCc3c-4[nH]c(=O)c(C(=O)O)c3O)C[C@@H]21.Cl [Cpd 115, 4-hydroxy-9-((4aR,7aR)-1-methylhexahydro-1H-pyrrolo[3,4-b]pyridin-6(2H)-yl)-2-oxo-2,5,6,7-tetrahydro-1H-benzo[6,7]cyclohepta[1,2-b]pyridine-3-carboxylic acid hydrochloride] | 12.5 to 150 µg/mL | 3.5 to 12.5 µg/mL | 12.5 to 150 µg/mL
Cl.Cn1c(CN)cc2cc3c(cc21)CCCc1c-3[nH]c(=O)c(C(=O)O)c1O [Cpd 35, 10-(aminomethyl)-4-hydroxy-9-methyl-2-oxo-1,2,5,6,7,9-hexahydropyrido[3′,2′:6,7]cyclohepta[1,2-f]indole-3-carboxylic acid hydrochloride] | 3.5 to 12.5 µg/mL | < 1 µg/mL | 1 to 3.5 µg/mL
CN1CCN(Cc2cc3cc4c(cc3n2C)OCCc2c-4[nH]c(=O)c(C(=O)O)c2O)CC1.Cl.Cl [Cpd 176, 4-hydroxy-9-methyl-10-((4-methylpiperazin-1-yl)methyl)-2-oxo-2,5,6,9-tetrahydro-1H-pyrido[2′,3′:4,5]oxepino[3,2-f]indole-3-carboxylic acid dihydrochloride] | 12.5 to 150 µg/mL | < 1 µg/mL | 3.5 to 12.5 µg/mL
CN(C)c1ccc2c(c1)CCCc1c-2[nH]c(=O)c(C(=O)O)c1O [Cpd 3, 9-(dimethylamino)-4-hydroxy-2-oxo-2,5,6,7-tetrahydro-1H-benzo[6,7]cyclohepta[1,2-b]pyridine-3-carboxylic acid] | 3.5 to 12.5 µg/mL (≈ 11.1 to 39.8 µM) | < 1 µg/mL | 3.5 to 12.5 µg/mL (≈ 11.1 to 39.8 µM)
Cl.O=C(O)c1c(O)c2c([nH]c1=O)-c1ccc(N3CCC4(CCNC4)C3)cc1CCC2 (stereo not drawn) [Cpd 122, 4-hydroxy-2-oxo-9-(2,7-diazaspiro[4.4]nonan-2-yl)-2,5,6,7-tetrahydro-1H-benzo[6,7]cyclohepta[1,2-b]pyridine-3-carboxylic acid hydrochloride] | 12.5 to 150 µg/mL | 12.5 to 150 µg/mL | 12.5 to 150 µg/mL
CN1CCc2cc3c(cc21)CCCc1c(O)c(C(=O)O)c(=O)n(C)c1-3 [Cpd 135, 4-hydroxy-1,9-dimethyl-2-oxo-1,2,5,6,7,9,10,11-octahydropyrido[3′,2′:6,7]cyclohepta[1,2-f]indole-3-carboxylic acid] | 3.5 to 12.5 µg/mL (≈ 10.3 to 36.7 µM) | < 1 µg/mL | 12.5 to 150 µg/mL (≈ 36.7 to 441 µM)
CCNCc1cc2cc3c(cc2n1C)CCCc1cc(C(=O)O)c(=O)[nH]c1-3.Cl [Cpd 54, 10-((ethylamino)methyl)-9-methyl-2-oxo-1,2,5,6,7,9-hexahydropyrido[3′,2′:6,7]cyclohepta[1,2-f]indole-3-carboxylic acid hydrochloride] | 12.5 to 150 µg/mL | < 1 µg/mL | < 1 µg/mL
Cn1ccc2cc3c(cc21)CCCc1c-3[nH]c(=O)c(C(=O)O)c1O [Cpd 17, 4-hydroxy-9-methyl-2-oxo-1,2,5,6,7,9-hexahydropyrido[3′,2′:6,7]cyclohepta[1,2-f]indole-3-carboxylic acid] | 1 to 3.5 µg/mL (≈ 3.08 to 10.8 µM) | < 1 µg/mL | 1 to 3.5 µg/mL (≈ 3.08 to 10.8 µM)
Cl.Cn1c(CNC2CCC2)cc2cc3c(cc21)OCCc1c-3[nH]c(=O)c(C(=O)O)c1O [Cpd 172, 10-((cyclobutylamino)methyl)-4-hydroxy-9-methyl-2-oxo-2,5,6,9-tetrahydro-1H-pyrido[2′,3′:4,5]oxepino[3,2-f]indole-3-carboxylic acid hydrochloride] | 3.5 to 12.5 µg/mL | < 1 µg/mL | < 1 µg/mL
CCNCc1cc2c3c(ccc2n1C)-c1[nH]c(=O)c(C(=O)O)c(O)c1CCC3.Cl [Cpd 61, 2-((ethylamino)methyl)-7-hydroxy-1-methyl-9-oxo-1,4,5,6,9,10-hexahydropyrido[2′,3′:3,4]cyclohepta[1,2-e]indole-8-carboxylic acid hydrochloride] | 12.5 to 150 µg/mL | 3.5 to 12.5 µg/mL | 3.5 to 12.5 µg/mL
CN(C)c1ccc2c(c1)CCCCc1c-2[nH]c(=O)c(C(=O)O)c1O [Cpd 5, 10-(dimethylamino)-4-hydroxy-2-oxo-1,2,5,6,7,8-hexahydrobenzo[7,8]cycloocta[1,2-b]pyridine-3-carboxylic acid] | 3.5 to 12.5 µg/mL (≈ 10.7 to 38.1 µM) | < 1 µg/mL | 12.5 to 150 µg/mL (≈ 38.1 to 457 µM)
CN(C)c1ccc2c(c1)CCc1cc(C(=O)O)c(=O)[nH]c1-2 [Cpd 1, 8-(dimethylamino)-2-oxo-1,2,5,6-tetrahydrobenzo[h]quinoline-3-carboxylic acid] | 12.5 to 150 µg/mL (≈ 44 to 528 µM) | 3.5 to 12.5 µg/mL (≈ 12.3 to 44 µM) | 12.5 to 150 µg/mL (≈ 44 to 528 µM)
CCC(C)NCc1cc2cc3c(cc2n1C)OCCc1c-3[nH]c(=O)c(C(=O)O)c1O.Cl (stereo not drawn) [Cpd 168, 10-((sec-butylamino)methyl)-4-hydroxy-9-methyl-2-oxo-2,5,6,9-tetrahydro-1H-pyrido[2′,3′:4,5]oxepino[3,2-f]indole-3-carboxylic acid hydrochloride] | 3.5 to 12.5 µg/mL | < 1 µg/mL | < 1 µg/mL
CN(C)CCNCc1cc2cc3c(cc2n1C)CCCc1c-3[nH]c(=O)c(C(=O)O)c1O.Cl.Cl [Cpd 142, 10-(((2-(dimethylamino)ethyl)amino)methyl)-4-hydroxy-9-methyl-2-oxo-1,2,5,6,7,9-hexahydropyrido[3′,2′:6,7]cyclohepta[1,2-f]indole-3-carboxylic acid dihydrochloride] | 12.5 to 150 µg/mL | < 1 µg/mL | 3.5 to 12.5 µg/mL
CC(C)NCc1cc2cc3c(cc2n1C)NCCCc1c-3[nH]c(=O)c(C(=O)O)c1O.Cl [Cpd 105, 4-hydroxy-11-((isopropylamino)methyl)-10-methyl-2-oxo-2,5,6,7,8,10-hexahydro-1H-pyrido[2′,3′:4,5]azocino[3,2-f]indole-3-carboxylic acid hydrochloride] | 12.5 to 150 µg/mL | 1 to 3.5 µg/mL | 3.5 to 12.5 µg/mL
Cl.Cn1c(CNCc2ccncc2)cc2cc3c(cc21)CCCc1c-3[nH]c(=O)c(C(=O)O)c1O [Cpd 39, 4-hydroxy-9-methyl-2-oxo-10-(((pyridin-4-ylmethyl)amino)methyl)-1,2,5,6,7,9-hexahydropyrido[3′,2′:6,7]cyclohepta[1,2-f]indole-3-carboxylic acid hydrochloride] | 3.5 to 12.5 µg/mL | < 1 µg/mL | 3.5 to 12.5 µg/mL
Cl.Cl.Cn1c(CNCCN2CCCC2)cc2cc3c(cc21)OCCc1c-3[nH]c(=O)c(C(=O)O)c1O [Cpd 179, 4-hydroxy-9-methyl-2-oxo-10-(((2-(pyrrolidin-1-yl)ethyl)amino)methyl)-2,5,6,9-tetrahydro-1H-pyrido[2′,3′:4,5]oxepino[3,2-f]indole-3-carboxylic acid dihydrochloride] | 12.5 to 150 µg/mL | 12.5 to 150 µg/mL | 12.5 to 150 µg/mL
CNCc1cc2cc3c(cc2n1C)C(C)CCc1c-3[nH]c(=O)c(C(=O)O)c1O.Cl (stereo not drawn) [Cpd 62, 4-hydroxy-7,9-dimethyl-10-((methylamino)methyl)-2-oxo-1,2,5,6,7,9-hexahydropyrido[3′,2′:6,7]cyclohepta[1,2-f]indole-3-carboxylic acid hydrochloride] | 12.5 to 150 µg/mL | 1 to 3.5 µg/mL | 3.5 to 12.5 µg/mL
CN(C)C1CCN(c2ccc3c(c2)OCCc2c-3[nH]c(=O)c(C(=O)O)c2O)C1.Cl (stereo not drawn) [Cpd 78, 9-(3-(dimethylamino)pyrrolidin-1-yl)-4-hydroxy-2-oxo-1,2,5,6-tetrahydrobenzo[2,3]oxepino[4,5-b]pyridine-3-carboxylic acid hydrochloride] | 12.5 to 150 µg/mL | 1 to 3.5 µg/mL | 12.5 to 150 µg/mL
